Type in all cases: cell-based
Experiment [1] relates to NG108-15 cells. The experiment can be described thus: Neurite crossing of laminin/aggrecan (CSPG) boundary after protein transduction. As to conditions: for neurite extension across laminin/CSPG boundary: vs controls. From the text: We developed a second model to observe the effects of substrate-bound GAGs or CSPGs on neurite extension. Briefly, alternating lanes of the CSPG aggrecan and laminin were created on 60 mm diameter tissue culture dishes using a modified version of the Bonhoeffer method. Thus, neurite extension of cells across laminin/CSPG boundaries could be observed in these coated tissue culture dishes. Such laminin/CSPG coated dishes were used for the experiments summarized in the following examples and in FIGS. 7-10.
NG108-15 cells (available from ATCC, Manassas, Va.) were removed from culture flasks and resuspended in Neurobasal-A media (Invitrogen, Carlsbad, Calif.) supplemented with N-2, L-glutamine, and 1% penicillin/streptomycin. 2×10^4 NG108-15 cells were added to a laminin/CSPG coated dish as described in Example 8. After approximately 4 hours, the cells formed lanes adhering to the laminin lanes. The ability of the cells to migrate and/or extend processes across the laminin/CSPG boundary was then assessed following transduction of the cells with control proteins, with various Class I activator proteins, or with a Class 2 inhibitor protein.
Cells were transduced using the CHARIOT protein transduction system with any one of the following: GST control alone, activated Cdc42-GST, dominant negative Cdc42-GST, activated Rac1-GST, dominant negative Rac1-GST, activated RhoA-GST, or the RhoA inhibitor C3 transferase (Cytoskeleton, Denver, Colo.). The activated and dominant negative variants used for these experiments were as following: activated Cdc42=Q61L Cdc42, dominant negative Cdc42=T17N Cdc42, activated Rac1=Q61L Rac1, dominant negative Rac1=T17N […], activated RhoA=Q63 L RhoA. Following protein transduction, cells were placed in humidified incubators at 37° C., and 5% CO2 and were […] after 48 hours.

For experiment [2], the system named is NG108 cells. The experiment can be described thus: Two dimensional coverslip with alternating stripes of chondroitin sulfate, crossing of short axis. As to conditions: protein delivered with Chariot protein transduction system; unmodified cells less than 10%; FIG. 5A. From the text: We developed a two-dimensional model to observe the effects of substrate-bound GAGs or CSPGs on neurite extension. Briefly, the surfaces of glass coverslips were modified using 3-aminopropyltriethoxysilane, which binds amines to the surface. Through a two-step covalent coupling procedure, chondroitin sulfate C(CS-C) was crosslinked to the amines on the surface of the coverslip. First, CS-C was linked to EDAC, a zero-length crosslinker, that reacts with amine groups. With the aid of the Bonhoeffer matrix the CS-C-EDAC solution was passed into the microchannels incubated at room temperature for 30 minutes and removed. This process was repeated three additional times with fresh CS-C-EDAC solution. The CS-C covalently couple to the amines on the modified coverslip via the EDAC.
The coverslips were sonicated for 5 minutes to remove any CS-C that was not covalently bound to the coverslip. The coverslips were sterilized in 70% ethanol, and 15,000 cells were seeded on top of the micropatterned area and incubated at 37° C., 5% CO2. The behavior of the seeded cells can now be examined in the presence or absence of agents which either influence the cells themselves (e.g., Class I activators, Class II inhibitors, etc.) or agents which alter the CS-C. […]

Experiment [3] relates to E9 chick DRG. Briefly: Three-dimensional layered agarose gel, neurite crossing of gel interfaces. As to conditions: for percentage of DRG neurites that cross the interface between 2 layers: interface of 1% agarose and 2% agarose modified with chondroitin sulfate, compared to non-GAG agarose interface, FIG. 3.
Source text: This three-dimensional system allows observation of neuronal cell behavior at gel interfaces. In this example, layer 1 is a control interface composed of 1% agarose, layer 2 contains the neuronal explant, in this case an explant of dorsal root ganglia (DRG) in 1% agarose, and layer 3 is 2% agarose containing chondroitin sulfate-B. The layer 1/layer 2 interface provides a control agarose/agarose interface, while the layer 2/layer 3 interface provides an agarose/CS-GAG rich agarose interface. The ability of neurites to cross the interface between layer 2/layer 3 can be measured.
Agarose gels were made by dissolving SeaPrep agarose (FMC Corp) in pH 7.4 PBS. Agarose solutions were sterilized by p assing through a 0.45 u m filter, gelled and stored at 4° C. Prior to use, the gels were degelled at 65° C., cooled to 37° C., and gelled.
For construction of three dimensional system, agarose gels were layered in a rectangular culture dish. 1% liquid agarose was poured into the dish, and chilled to allow layer 1 to gel. After layer 1 had gelled, liquid agarose containing several E9 chick DRG were poured onto layer 1, and chilled to form layer 2. After layer 2 had gelled, 2% liquid agarose containing chondroitin sulfate-B was poured onto layer 2 and chilled to form layer 3.
To maintain the cells in this culture system, culture medium consisting of DMEM supplemented with 10% fetal bovine serum, 1% penicillin-streptomycin, and 50 ng/mL nerve growth factor was added to the top of the gel.
The ability of neuronal cells to extend processes across the interfaces was quantified by determining the percentage of neurites that successfully crossed the interface using light microscopy.
Where [4] appears, read: Chariot transduction, imaged after 48 hours, vs untransduced or GST alone, FIG. 7.

With “dominant negative Cdc42: T17N Cdc42 dominant negative Rho family GTPase variant, GST protein”, in experiment [1] (setting [4]), the “percentage of neurites that cross a laminin/aggrecan boundary” value is recorded as “did not significantly promote”.
Consider “constitutively active Cdc42: Q61L mutation of human Cdc42 (SEQ ID NO: 2), constitutively active Rho family GTPase protein, delivered by Chariot protein transduction”, for which the “percentage of neurites that cross a laminin/aggrecan boundary” value in experiment [1] (4 μg/mL, Chariot transduction, vs untransduced cells, FIG. 8) is on record as “statistically significant increase”; in experiment [1] (setting [4]), “statistically significant increase”. Further, in experiment [1] (1, 2, 3, 4 μg/mL, Chariot transduction, FIG. 8), the “dose dependence of neurite extension across laminin/CSPG boundary” value is “dose dependent increase”. For the same substance, in experiment [2], the “percentage of NG108 cells that cross the short axis of chondroitin sulfate GAG coverslip” value is recorded as “approximately 50%”.
In the case of chondroitin-sulfate B, the “percentage of DRG neurites that cross the interface between 2 layers” value is “statistically significant decrease” in experiment [3] and “significantly inhibited” in experiment [3] (listed as CS-GAG). The “extension of neuronal processes at the layer 2/layer 3 interface” value in experiment [3] (layer 3 is 2% agarose modified with chondroitin sulfate B, FIG. 2C) is listed as “inhibited”.
Take “activated RhoA: Q63L RhoA constitutively active Rho family GTPase variant, GST protein”: the “percentage of neurites that cross a laminin/aggrecan boundary” value in experiment [1] (setting [4]) is “did not significantly promote”.
Take C3 transferase: the “neurite extension across laminin/CSPG boundary” value in experiment [1] (2 μg/mL, FIG. 10) is “statistically significant”; in experiment [1] (4 μg/mL, FIG. 10), “statistically significant”. Moreover, the “percentage of neurites that cross a laminin/aggrecan boundary” value in experiment [1] (setting [4]) is recorded as “statistically significant increase”. In addition, in experiment [1] (various concentrations, in the presence of Chariot, FIG. 10), the “dose dependence of neurite crossing of laminin/aggrecan boundary” value is “statistically significant and dose dependent increase”.
